# Reference: ChEMBL document CHEMBL5653599, “AZD1152, a novel and selective aurora B kinase inhibitor, induces growth arrest, apoptosis, and sensitization for tubulin depolymerizing agent or topoisomerase II inhibitor in human acute leukemia cells in vitro and in vivo” (Blood, 2007)
# Calls of active or inactive are those of the source. The rule behind the calls is not given here.
# Assays:
# MOLM-13 [1] = assay: Induction of apoptosis in human MOLM-13 cells assessed as early apoptotic cells at 1 nM incubated for 48 hrs by annexin V/PI staining based flow cytometry (reference value: 3.2 %); assay type: functional
# [2] = molecular target: Aurora kinase B (Homo sapiens) (UniProt Q96GD4); conditions: PALL-2, dose <= 10.0 nM, time 24-48 hrs
# Description: Inhibition of Aurora B in human PALL-2 cells assessed as increase in 4N/8N DNA content upto 10 nM by FACS analysis
# MOLM-13 [3] = assay: Induction of apoptosis in human MOLM-13 cells assessed as increase in cleaved PARP level at 1 to 3 nM in presence of vincristine by immunoblot analysis; assay type: functional, cell-based; conditions: dose 1-3 nM
# MOLM-13 [4] = assay: Induction of apoptosis in human MOLM-13 cells assessed as late apoptotic cells at 3 nM incubated for 24 hrs by annexin V/PI staining based flow cytometry (reference value: 2.2 %); assay type: functional
# MOLM-13 [5] = assay: Induction of apoptosis in human MOLM-13 cells assessed as early apoptotic cells at 3 nM incubated for 24 hrs by annexin V/PI staining based flow cytometry (reference value: 2.4 %); assay type: functional
# [6] = molecular target: Aurora kinase B (Homo sapiens) (UniProt Q96GD4); conditions: MOLM-13, dose <= 10.0 nM, time 24-48 hrs
# Description: Inhibition of Aurora B in human MOLM-13 cells assessed as increase in 4N/8N DNA content measured for 24 to 48 hrs by FACS analysis
# MOLM-13 [7] = assay: Inhibition of cell proliferation of human MOLM-13 cells incubated for 48 hrs by 3H-thymidine uptake assay; assay type: functional, cell-based
# MOLM-13 [8] = assay: Induction of apoptosis in human MOLM-13 cells assessed as late apoptotic cells at 10 nM incubated for 48 hrs by annexin V/PI staining based flow cytometry (reference value: 1.9 %); assay type: functional
# MV4-11 [9] = assay: Inhibition of clonogenic growth in human MV4-11 cells incubated for 10 days; assay type: functional, cell-based; conditions: MV4-11, 240 h
# MOLM-13 [10] = assay: Induction of apoptosis in human MOLM-13 cells assessed as early apoptotic cells at 10 nM incubated for 48 hrs by annexin V/PI staining based flow cytometry (reference value: 3.2 %); assay type: functional
# MOLM-13 [11] = assay: Induction of apoptosis in human MOLM-13 cells assessed as late apoptotic cells at 3 nM incubated for 48 hrs by annexin V/PI staining based flow cytometry (reference value: 1.9 %); assay type: functional
# [12] = Antiproliferative activity against human PALL-2 cells assessed as inhibition of cell proliferation at 3 nM by 3H-thymidine incorporation assay relative to control; assay type: functional
# MOLM-13 [13] = assay: Induction of apoptosis in human MOLM-13 cells assessed as early apoptotic cells at 3 nM incubated for 48 hrs by annexin V/PI staining based flow cytometry (reference value: 3.2 %); assay type: functional
# MOLM-13 [14] = conditions: Homo sapiens, dose 1-10 nM
# [15] = molecular target: Aurora kinase B (Homo sapiens) (UniProt Q96GD4); conditions: MOLM-13, dose <= 10.0 nM, time 24-48 hrs; remark: listed apart in the source
# Description: Inhibition of Aurora B in human MOLM-13 cells assessed as increase in 4N/8N DNA content upto 10 nM by FACS analysis
# [16] = Synergistic antiproliferative activity against human PALL-2 cells assessed as inhibition of cell proliferation at 0.3 to 3 nM in presence of vincristine by 3H-thymidine incorporation assay relative to control; assay type: functional; conditions: dose 0.3-3 nM
# MV4-11 [17] = assay: Inhibition of cell proliferation of human MV4-11 cells incubated for 48 hrs by 3H-thymidine uptake assay; assay type: functional, cell-based
# MOLM-13 [18] = assay: Induction of apoptosis in human MOLM-13 cells assessed as increase in cleaved PARP level at 3 to 10 nM in presence of daunorubicin by immunoblot analysis; assay type: functional, cell-based; conditions: dose 3-10 nM
# [19] = Inhibition of cell proliferation of human PALL-2 cells incubated for 48 hrs by 3H-thymidine uptake assay; assay type: functional, cell-based
# MOLM-13 [20] = assay: Induction of apoptosis in human MOLM-13 cells assessed as late apoptotic cells at 10 nM incubated for 24 hrs by annexin V/PI staining based flow cytometry (reference value: 2.2 %); assay type: functional
# MOLM-13 [21] = assay: Induction of apoptosis in human MOLM-13 cells assessed as late apoptotic cells at 1 nM incubated for 48 hrs by annexin V/PI staining based flow cytometry (reference value: 1.9 %); assay type: functional
# MOLM-13 [22] = conditions: Homo sapiens, dose 1.0 nM
# MOLM-13 [23] = assay: Induction of apoptosis in human MOLM-13 cells assessed as late apoptotic cells at 1 nM incubated for 24 hrs by annexin V/PI staining based flow cytometry (reference value: 2.2 %); assay type: functional
# MOLM-13 [24] = assay: Induction of apoptosis in human MOLM-13 cells assessed as early apoptotic cells at 10 nM incubated for 24 hrs by annexin V/PI staining based flow cytometry (reference value: 2.4 %); assay type: functional
# MOLM-13 [25] = assay: Inhibition of clonogenic growth in human MOLM-13 cells incubated for 10 days; assay type: functional, cell-based; conditions: MOLM-13, 240 h
# [26] = molecular target: Aurora kinase B (Homo sapiens) (UniProt Q96GD4); conditions: PALL-2, dose <= 10.0 nM, time 24-48 hrs; remark: listed apart in the source
# Description: Inhibition of Aurora B in human PALL-2 cells assessed as increase in 4N/8N DNA content measured for 24 to 48 hrs by FACS analysis
# MOLM-13 [27] = assay: Induction of apoptosis in human MOLM-13 cells assessed as early apoptotic cells at 1 nM incubated for 24 hrs by annexin V/PI staining based flow cytometry (reference value: 2.4 %); assay type: functional
# PALL-2 [28] = assay: Induction of apoptosis in human PALL-2 cells assessed as increase in cleaved PARP level at 1 to 3 nM in presence of vincristine by immunoblot analysis; assay type: functional, cell-based; conditions: dose 1-3 nM
# MOLM-13 [29] = assay: Antitumor activity against human MOLM-13 cells xenografted in immunodeficient nude BALB/c mouse model assessed as decrease in tumor weight at 25 mg/kg, ip administered 4 times a week for 2 weeks measured twice per week (reference value: 583 +/- 150 mg); assay type: functional
# MOLM-13 [30] = assay: Antitumor activity against human MOLM-13 cells xenografted in immunodeficient nude BALB/c mouse model assessed as suppression of tumor weight at 25 mg/kg, ip administered 4 times a week for 2 weeks measured twice per week; assay type: functional, organism-based
# [31] = molecular target: Aurora kinase B (Homo sapiens) (UniProt Q96GD4); assay: Inhibition of Aurora B in human MV4-11 cells assessed as decrease in histone H3 phosphorylation at Ser10 at 10 nM incubated for 24 hrs by flow cytometry (reference value: 52 %); assay type: cell-based; parameters: scale not given: the % may be the effect or the level left
# [32] = molecular target: Aurora kinase B (Homo sapiens) (UniProt Q96GD4); assay: Inhibition of Aurora B in human MOLM-13 cells assessed as decrease in histone H3 phosphorylation at Ser10 at 10 nM incubated for 24 hrs by flow cytometry (reference value: 43 %); assay type: cell-based; parameters: scale not given: the % may be the effect or the level left
# MOLM-13 [33] = assay: In vivo antiproliferative activity against human MOLM-13 cells xenografted in immunodeficient nude BALB/c mouse model assessed as inhibition of cell proliferation at 5 mg/kg, ip administered 4 times a week for 2 weeks relative to control; assay type: functional; conditions: MOLM-13, 336 h
# MOLM-13 [34] = assay: Antitumor activity against human MOLM-13 cells xenografted in immunodeficient nude BALB/c mouse model assessed as necrotic tissue with infiltration of phagocytic cells at 25 mg/kg, ip administered 4 times a week for 2 weeks by H and E staining based analysis; assay type: functional, organism-based
# MOLM-13 [35] = assay: Antitumor activity against human MOLM-13 cells xenografted in immunodeficient nude BALB/c mouse model assessed as decrease in tumor volume at 25 mg/kg, ip administered 4 times a week for 2 weeks measured twice per week (reference value: 1261 +/- 200 mm3); assay type: functional
# MOLM-13 [36] = assay: Antitumor activity against human MOLM-13 cells xenografted in immunodeficient nude BALB/c mouse model assessed as absence of leukemia cells at 25 mg/kg, ip administered 4 times a week for 2 weeks by H and E staining based analysis; assay type: functional, organism-based
# MOLM-13 [37] = assay: Antitumor activity against human MOLM-13 cells xenografted in immunodeficient nude BALB/c mouse model assessed as reduction in tumor growth at 5 mg/kg, ip administered 4 times a week for 2 weeks in presence of daunorubicin; assay type: functional, organism-based
# MOLM-13 [38] = assay: Antitumor activity against human MOLM-13 cells xenografted in immunodeficient nude BALB/c mouse model assessed as reduction in tumor weight at 5 mg/kg, ip administered 4 times a week for 2 weeks in presence of vincristine; assay type: functional, organism-based
# MOLM-13 [39] = assay: Antitumor activity against human MOLM-13 cells xenografted in immunodeficient nude BALB/c mouse model assessed as suppression of tumor growth at 25 mg/kg, ip administered 4 times a week for 2 weeks measured twice per week; assay type: functional, organism-based
# MOLM-13 [40] = assay: Antitumor activity against human MOLM-13 cells xenografted in immunodeficient nude BALB/c mouse model assessed as tumor growth inhibition at 5 mg/kg, ip administered 4 times a week for 2 weeks in presence of vincristine relative to control; assay type: functional; conditions: MOLM-13, 336 h
# [41] = Toxicity in immunodeficient nude BALB/c mouse model xenografted with human MOLM-13 cells at 1 mg/kg, ip administered 6 times in 2 weeks; assay type: organism-based; conditions: in vivo, 336 h
# [42] = Toxicity in immunodeficient nude BALB/c mouse model xenografted with human MOLM-13 cells assessed as signs of body wasting at 5 mg/kg, ip administered 4 times a week for 2 weeks in presence of vincristine; assay type: organism-based; conditions: in vivo, 336 h
# [43] = Toxicity in immunodeficient nude BALB/c mouse model xenografted with human MOLM-13 cells assessed as signs of toxicity at 25 mg/kg, ip administered 4 times a week for 2 weeks measured twice per week; assay type: organism-based; conditions: in vivo, 336 h
# [44] = Toxicity in immunodeficient nude BALB/c mouse model xenografted with human MOLM-13 cells assessed as signs of body wasting at 25 mg/kg, ip administered 4 times a week for 2 weeks measured twice per week; assay type: organism-based; conditions: in vivo, 336 h
# [45] = Antiproliferative activity against human PALL-2 cells assessed as inhibition of cell proliferation at 0.3 uM by 3H-thymidine incorporation assay relative to control; assay type: functional
# PALL-2 [46] = assay: Induction of apoptosis in human PALL-2 cells assessed as increase in cleaved PARP level by immunoblot analysis; assay type: functional, cell-based; conditions: dose 0.1-1 µM
# MOLM-13 [47] = assay: Induction of apoptosis in human MOLM-13 cells assessed as increase in cleaved PARP level by immunoblot analysis; assay type: functional, cell-based; conditions: dose 0.1-1 µM
# MOLM-13 [48] = assay: In vivo antiproliferative activity against human MOLM-13 cells xenografted in immunodeficient nude BALB/c mouse model assessed as inhibition of cell proliferation at 0.2 mg/kg, ip administered for 2 weeks on every another day for first week relative to control; assay type: functional; conditions: MOLM-13, 336 h
# Sequence of Aurora kinase B (Homo sapiens) (Q96GD4 whole entry): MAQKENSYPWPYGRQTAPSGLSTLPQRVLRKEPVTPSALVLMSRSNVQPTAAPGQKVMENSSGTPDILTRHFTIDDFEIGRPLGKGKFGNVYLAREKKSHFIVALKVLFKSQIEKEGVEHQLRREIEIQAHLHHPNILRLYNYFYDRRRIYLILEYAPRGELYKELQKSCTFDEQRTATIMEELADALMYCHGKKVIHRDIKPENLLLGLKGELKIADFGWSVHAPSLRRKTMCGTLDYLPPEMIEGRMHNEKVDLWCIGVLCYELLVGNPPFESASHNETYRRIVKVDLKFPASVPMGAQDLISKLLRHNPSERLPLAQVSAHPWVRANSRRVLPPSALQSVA
smiles,measurement,setting,value
CCN(CCO)CCCOc1ccc2c(Nc3cc(CC(=O)Nc4cccc(F)c4)[nH]n3)ncnc2c1 [DEFOSBARASERTIB],Activity,MOLM-13 [1],1.9%
same,inhibition,[2],Tde
same,Activity,MOLM-13 [3],Active
same,Activity,MOLM-13 [4],3.8%
same,Activity,MOLM-13 [5],3.4%
same,inhibition,[6],Dose-Dependent Effect
same,IC50,MOLM-13 [7],12 nM
same,Activity,MOLM-13 [8],15%
same,IC50,MV4-11 [9],2.8 nM
same,Activity,MOLM-13 [10],36%
same,Activity,MOLM-13 [11],3.5%
same,inhibition at 0.003 µM,[12],~35%
same,Activity,MOLM-13 [13],2.2%
same,inhibition,MOLM-13 [14],Active
same,inhibition,[15],Tde
same,inhibition (INH),[16],~80%
same,IC50,MV4-11 [17],8 nM
same,Activity,MOLM-13 [18],Active
same,IC50,[19],5 nM
same,Activity,MOLM-13 [20],7.1%
same,Activity,MOLM-13 [21],3.8%
same,inhibition,MOLM-13 [22],Active
same,Activity,MOLM-13 [23],4.3%
same,Activity,MOLM-13 [24],6.5%
same,IC50,MOLM-13 [25],1 nM
same,inhibition,[26],Dose-Dependent Effect
same,Activity,MOLM-13 [27],3.1%
same,Activity,PALL-2 [28],Active
CCN(CCCOc1ccc2c(Nc3cc(CC(=O)Nc4cccc(F)c4)[nH]n3)ncnc2c1)CCOP(=O)(O)O [BARASERTIB],Activity,MOLM-13 [29],78 mg
same,Activity,MOLM-13 [30],Active
same,Activity,[31],19%
same,Activity,[32],25%
same,inhibition in vivo at 5 mg/kg,MOLM-13 [33],~50%
same,Activity,MOLM-13 [34],Active
same,Activity,MOLM-13 [35],71 mm3
same,Activity,MOLM-13 [36],Active
same,Activity,MOLM-13 [37],Active
same,Activity,MOLM-13 [38],Active
same,Activity,MOLM-13 [39],Active
same,inhibition in vivo at 5 mg/kg,MOLM-13 [40],~100%
COc1cccc2c1C(=O)c1c(O)c3c(c(O)c1C2=O)C[C@@](O)(C(C)=O)C[C@@H]3O[C@H]1C[C@H](N)[C@H](O)[C@H](C)O1 [DAUNORUBICIN],Activity,[41],Toxic
CCN(CCCOc1ccc2c(Nc3cc(CC(=O)Nc4cccc(F)c4)n[nH]3)ncnc2c1)CCOP(=O)(O)O [BARASERTIB],Activity,[42],Non-Toxic
same,Activity,[43],Non-Toxic
same,Activity,[44],Non-Toxic
CC[C@]1(O)C[C@H]2CN(CCc3c([nH]c4ccccc34)[C@@](C(=O)OC)(c3cc4c(cc3OC)N(C=O)[C@H]3[C@@](O)(C(=O)OC)[C@H](OC(C)=O)[C@]5(CC)C=CCN6CC[C@]43[C@@H]65)C2)C1 [VINCRISTINE],inhibition at 0.3 µM,[45],~35%
same,Activity,PALL-2 [46],Dose-Dependent Effect
same,Activity,MOLM-13 [47],Dose-Dependent Effect
same,inhibition in vivo at 0.2 mg/kg,MOLM-13 [48],~50%
